The assay concerns the target T1, human liver glycogen phosphorylase a (HLGPa) (Homo sapiens, UniProt P06737).
T1 construct: creating a full-length cDNA fused at the 5′ end to codons for methionine-glycine-alanine-histidine; 6xHis tag (leader Met-Gly-Ala-His6-Gly-Gly) (N); made in house; host or cells: E. coli (bacterial expression plasmid pTXK1007LTev)
T1 sequence (P06737 2-847 limits assumed): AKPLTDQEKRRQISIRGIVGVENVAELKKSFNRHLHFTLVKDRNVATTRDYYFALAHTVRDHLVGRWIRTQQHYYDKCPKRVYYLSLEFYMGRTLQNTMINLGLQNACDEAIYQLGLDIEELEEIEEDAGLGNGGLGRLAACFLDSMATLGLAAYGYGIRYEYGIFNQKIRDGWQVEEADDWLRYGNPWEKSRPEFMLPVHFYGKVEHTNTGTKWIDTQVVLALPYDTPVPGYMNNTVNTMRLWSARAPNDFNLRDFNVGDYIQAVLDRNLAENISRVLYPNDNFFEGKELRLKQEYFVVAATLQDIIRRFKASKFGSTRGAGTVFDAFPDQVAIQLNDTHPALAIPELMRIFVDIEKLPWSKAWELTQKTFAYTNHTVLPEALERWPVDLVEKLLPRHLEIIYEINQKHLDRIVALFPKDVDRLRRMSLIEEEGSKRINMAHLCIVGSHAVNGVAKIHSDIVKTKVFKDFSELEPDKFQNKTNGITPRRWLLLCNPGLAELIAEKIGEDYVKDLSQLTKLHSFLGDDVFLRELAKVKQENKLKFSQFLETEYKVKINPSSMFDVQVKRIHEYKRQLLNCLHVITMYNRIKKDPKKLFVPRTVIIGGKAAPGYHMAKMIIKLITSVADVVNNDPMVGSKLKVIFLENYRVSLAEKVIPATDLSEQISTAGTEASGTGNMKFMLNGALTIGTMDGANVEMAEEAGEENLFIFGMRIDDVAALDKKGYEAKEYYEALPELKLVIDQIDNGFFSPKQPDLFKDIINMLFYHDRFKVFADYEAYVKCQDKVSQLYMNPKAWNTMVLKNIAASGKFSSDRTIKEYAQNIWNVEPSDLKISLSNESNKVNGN
The assay is described as follows: Human liver glycogen phosphorylase a enzymatic activity assay (coupled, fluorescent resorufin readout, with and without 10 mM glucose). Format: biochemical.

[1] abbreviates: human liver glycogen phosphorylase a, table does not say whether with or without 10 mM glucose.
Where [2] appears, read: human liver glycogen phosphorylase a enzymatic activity assay.

The results in this text go back to patent US20070249670A1, “Glycogen Phosphorylase Inhibitor Compounds and Pharmaceutical Compositions Thereof” (SMITHKLINE BEECHAM CORPORATION, priority 2004, published 2007).

Regarding `Cc1cc(C)c(NC(=O)Nc2cc3ccccc3cc2C(=O)N[C@H](CC(=O)O)C(C)C)c(C)c1` [Example 339, (3R)-4-methyl-3-({[3-({[(2,4,6-trimethylphenyl)amino]carbonyl}amino)-2-naphthalenyl]carbonyl}amino)pentanoic acid], under setting [1], the midpoint of inhibition, the IC50, lay at 1560 nM. Compound `Cc1cc(C)c(NC(=O)Nc2cc(Cl)cnc2C(=O)N[C@H](C(=O)O)C(C)OC(C)(C)C)c(C)c1` (stereo in doubt) [Example 318, N-{[5-chloro-3-({[(2,4,6-trimethylphenyl)amino]carbonyl}amino)-2-pyridinyl]carbonyl}-O-(1,1-dimethylethyl)-L-threonine] returned an IC50 under setting [1] of 4280 nM. The same measure, in the same setting: to `O=C(Nc1cc2ccccc2cc1C(=O)NC1(C(=O)O)CCOCC1)Nc1c(Cl)cccc1Cl` [Example 283, 4-({[3-({[(2,6-Dichlorophenyl)amino]carbonyl}amino)-2-naphthalenyl]carbonyl}amino)tetrahydro-2H-pyran-4-carboxylic acid] belongs 7180 nM; to `CNC(=O)NC1CCC(C(NC(=O)c2cc3ccccc3cc2NC(=O)Nc2c(C)cc(C)cc2C)C(=O)O)CC1` (mixture of isomers) [Example 352, (cis and trans)-(4-{[(methylamino)carbonyl]amino}cyclohexyl)({[3-({[(2,4,6-trimethylphenyl)amino]carbonyl}amino)-2-naphthalenyl]carbonyl}amino)acetic acid], 100 nM. The same measure, in the same setting: for `O=C(Nc1cc(-c2ccc(F)cc2)sc1C(=O)O)Nc1c(Cl)cccc1Cl` [Example 385, 3-({[(2,6-dichlorophenyl)amino]carbonyl}amino)-5-(4-fluorophenyl)-2-thiophenecarboxylic acid] the value was 1140 nM.

In turn, `O=C(Nc1ccccc1Cl)Nc1cc2ccccc2cc1C(=O)NC(C(=O)O)c1ccccc1` (centres unmarked) [Example 100, {[3-({[(2-chlorophenyl)amino]carbonyl}amino)-2-naphthoyl]amino}(phenyl)acetic acid] registered an IC50 under setting [2] of 7630 nM. Still for that read-out and setting: to `O=C(Nc1cc(-c2ccccc2)sc1C(=O)O)Nc1c(Cl)cccc1Cl` [Example 410, 3-({[(2,6-dichlorophenyl)amino]carbonyl}amino)-5-phenyl-2-thiophenecarboxylic acid] belongs 890 nM. `COc1ccc(-c2ccc(C(=O)O)c(NC(=O)Nc3c(C)cc(C)cc3C)c2)cc1` [Example 380, 4′-(methyloxy)-3-({[(2,4,6-trimethylphenyl)amino]carbonyl}amino)-4-biphenylcarboxylic acid] gave a 50% inhibitory concentration (IC50) under setting [1] of 1990 nM.

`Cc1cccc(C)c1NC(=O)Nc1sc2c(c1C(=O)N[C@H](C(=O)O)C1CCCCC1)CCCC2` [Example 138, (2S)-cyclohexyl({[2-({[(2,6-dimethylphenyl)amino]carbonyl}amino)-4,5,6,7-tetrahydro-1-benzothien-3-yl]carbonyl}amino)acetic acid] registered an IC50 under setting [2] of 5560 nM. Same read-out and setting: for `COc1ccc(-c2ccc(C(=O)N[C@@H](CC(=O)N(C)C)C(=O)O)c(NC(=O)Nc3c(C)cc(C)cc3C)c2)cc1` [Example 504, N^4,N^4-dimethyl-N^2-{[4′-(methyloxy)-3-({[(2,4,6-trimethylphenyl)amino]carbonyl}amino)-4-biphenylyl]carbonyl}-L-asparagine] the value was 32 nM. Take `Cc1cc(C)c(NC(=O)Nc2cc3ccccc3cc2C(=O)O)c(C)c1` [Example 263, 3-({[(2,4,6-trimethylphenyl)amino]carbonyl}amino)-2-naphthalenecarboxylic acid]: the IC50 under setting [1] was 3460 nM. Compound `O=C(Nc1cc(-c2ccccc2)ccc1C(=O)N[C@H](C(=O)O)C1CCCCC1)Nc1c(Cl)cccc1Cl` [Example 203, (2S)-Cyclohexyl({[3-({[(2,6-dichlorophenyl)amino]carbonyl}amino)-4-biphenylyl]carbonyl}amino)ethanoic acid] came in with a 50% inhibitory concentration (IC50) under setting [1] of 75 nM.

As to `COC(=O)[C@H](CC(=O)N(C)C)NC(=O)c1ccc(-c2ccc(OC)cc2)cc1NC(=O)Nc1c(C)cc(C)cc1C` [Example 503, methyl N^4,N^4-dimethyl-N^2-{[4′-(methyloxy)-3-({[(2,4,6-trimethylphenyl)amino]carbonyl}amino)-4-biphenylyl]carbonyl}-L-asparaginate], the IC50 under setting [2] was found to be 11100 nM. `COC(=O)[C@H](CC(=O)OC(C)(C)C)NC(=O)c1ccc(-c2ccc(OC)cc2)cc1NC(=O)Nc1c(C)cc(C)cc1C` [Example 371, 4-(1,1-dimethylethyl) 1-methyl N-{[4′-(methyloxy)-3-({[(2,4,6-trimethylphenyl)amino]carbonyl}amino)-4-biphenylyl]carbonyl}-L-aspartate] registered an IC50 under setting [1] of 13500 nM.

Regarding `CC[C@H](C)[C@H](NC(=O)c1c(NC(=O)Nc2c(C)cccc2C)sc2c1CCCC2)C(=O)O` [Example 126, N-{[2-({[(2,6-dimethylphenyl)amino]carbonyl}amino)-4,5,6,7-tetrahydro-1-benzothien-3-yl]carbonyl}-L-isoleucine], the IC50 under setting [2] is 13900 nM. As to `Cc1cccc(Cl)c1NC(=O)Nc1cc(F)c(F)cc1C(=O)N[C@@H](CC(C)C)C(=O)O` [Example 68, N-[2-({[(2-chloro-6-methylphenyl)amino]carbonyl}amino)-4,5-difluorobenzoyl]-L-leucine], under setting [2], the IC50 worked out at 7540 nM.

`Cc1cccc(C)c1NC(=O)Nc1cc2ccccc2cc1C(=O)N[C@@H](CC1CCCCC1)C(=O)O` [Example 99, 3-cyclohexyl-N-[3-({[(2,6-dimethylphenyl)amino]carbonyl}amino)-2-naphthoyl]-L-alanine]: inhibition under setting [2] was half-maximal at 490 nM (IC50).

`C[C@](NC(=O)c1ccc(F)cc1NC(=O)Nc1c(Cl)cc(OC(F)(F)F)cc1Cl)(C(=O)O)C1CCCCC1` [Example 474, 2-cyclohexyl-N-[(2-{[({2,6-dichloro-4-[(trifluoromethyl)oxy]phenyl}amino)carbonyl]amino}-4-fluorophenyl)carbonyl]-L-alanine] returned an IC50 under setting [2] of 145 nM. Under setting [2], `O=C(Nc1sc(-c2ccc(Cl)cc2)nc1C(=O)N[C@H](C(=O)O)C1CCCCC1)Nc1c(Cl)cc(Cl)cc1Cl` [Example 490, (2S)-({[2-(4-Chlorophenyl)-5-({[(2,4,6-trichlorophenyl)amino]carbonyl}amino)-1,3-thiazol-4-yl]carbonyl}amino)(cyclohexyl)ethanoic acid] had an IC50 of 170 nM. In the case of `CCCc1cc(C)c(NC(=O)Nc2cc(-c3ccc(OC)cc3)ccc2C(=O)N[C@@H](CC(=O)O)C(=O)O)c(C)c1` [Example 370, N-{[3-({[(2,6-dimethyl-4-propylphenyl)amino]carbonyl}amino)-4′-(methyloxy)-4-biphenylyl]carbonyl}-L-aspartic acid], the IC50 under setting [1] worked out at 2 nM. As for `COc1ccc(-c2cc(NC(=O)Nc3c(C)cc(C)cc3C)c(C(=O)NC3(C(=O)O)CCCC3)s2)cc1` [Example 451, 1-({[5-[4-(methyloxy)phenyl]-3-({[(2,4,6-trimethylphenyl)amino]carbonyl}amino)-2-thienyl]carbonyl}amino)cyclopentanecarboxylic acid], half-maximal inhibition under setting [2] (IC50) required 47 nM. Under setting [2], `O=C(Nc1cc2ccccc2cc1C(=O)NC(C(=O)O)C1CCOCC1)Nc1c(Cl)cc(OC(F)(F)F)cc1Cl` (centres unmarked) [Example 468, {[(3-{[({2,6-dichloro-4-[(trifluoromethyl)oxy]phenyl}amino)carbonyl]amino}-2-naphthalenyl)carbonyl]amino}(tetrahydro-2H-pyran-4-yl)acetic acid] yielded a concentration for half-maximal inhibition (IC50) of 15 nM. On the same count and under the same terms, to `O=C(Nc1cc2ccccc2cc1C(=O)N[C@H](C(=O)O)C1CCCCC1)Nc1c(Cl)cc(F)cc1Cl` [Example 455, (2S)-cyclohexyl({[3-({[(2,6-dichloro-4-fluorophenyl)amino]carbonyl}amino)-2-naphthalenyl]carbonyl}amino)ethanoic acid] belongs 86 nM; to `Cc1ccccc1NC(=O)Nc1cc2ccccc2cc1C(=O)N[C@H](C(=O)O)C1CCCCC1` [Example 143, (2S)-cyclohexyl{[3-({[(2-methylphenyl)amino]carbonyl}amino)-2-naphthoyl]amino}acetic acid], 30300 nM; to `COc1ccc(-c2cc(NC(=O)Nc3c(Cl)cc(OC(F)(F)F)cc3Cl)c(C(=O)O)s2)cc1` [Example 432, 3-{[({2,6-dichloro-4-[(trifluoromethyl)oxy]phenyl}amino)carbonyl]amino}-5-[4-(methyloxy)phenyl]-2-thiophenecarboxylic acid], 2700 nM.

On to `Cc1cccc(Cl)c1NC(=O)Nc1sc2c(c1C(=O)N[C@@H](CC(C)C)C(=O)O)CCCC2` [Example 130, N-{[2-({[(2-chloro-6-methylphenyl)amino]carbonyl}amino)-4,5,6,7-tetrahydro-1-benzothien-3-yl]carbonyl}-L-leucine], for which half-maximal inhibition under setting [2] (IC50) required 18000 nM.

Broadly, the IC50 is the concentration at which inhibition is half-maximal. Lower therefore signals higher potency.
